In data set [1] the test system is barnacle Balanus amphitrite larvae. Put plainly: anti-larval settlement bioassay in 24-well plates. Type of data set: in vivo. Particulars: tested range 60-140 μg ml^−1, 24 h. Here is the method: Anti-larval settlement activity of 3-chloro-2,5-dihydroxy benzyl alcohol (compound 1) was conducted using 24-well polystyrene plates. Pure compound was dissolved in DMSO and added to autoclaved FSW at different concentrations. Competent Balanus amphitrites larvae (10±2 individuals) were added to each well with 1 ml testing solution in 5 replicates, and wells containing FSW (filtered seawater) served as control. The 24-well plates were incubated at 30° C. for 24 h. The percent settlement was determined by counting the number of settled larvae under a dissecting microscope. In all bioassays, FSW served as the control. Statistical calculations were performed with the SPSS (Statistical Package for the Social Sciences) software package, Version 11.
(§1) The larval bioassay was conducted according to Rittschof et al. (1994), which is incorporated by reference herein in its entirety.
(§2) The assay was conducted according to Rittschof et al. (1994). Data plotted are means+SD of five replicates.
For determining anti-larval settlement activity, adult Balanus amphitrile (Darwin) were collected from the intertidal zone in Hong Kong (22°19′N, 114°16′E). Nauplii obtained from several adults were mass-reared to cyprid stage at a density of 2 larvae ml^−1 in 0.22-μm-filtered seawater with 30 ppt salinity (FSW) using Chaetoceros gracilis Schutt as food and a rearing temperature of 28° C. Newly transformed cyprids were used for the experiment.
Anti-larval settlement activity of succinic acid against B. amphitrite was determined using 24-well polystyrene plates. Pure compound was dissolved in autoclaved FSW ranged from 60-140 μg ml^−1 for B. amphitrite. Competent larvae (15±2 individuals) were added to each well with 1 ml testing solution in 5 replicates, and wells containing FSW served as the control. The 24-well plates were incubated at 30° C. for 24 h. The percent larval settlement was determined by counting the number of settled individuals under a dissecting microscope and expressed as a proportion of the total number of larvae in the well.

The subject of data set [2] is Balanus amphitrite larvae. Nature of the data set: in vivo. The following applies: in vivo. Here is the method:
as §1
Toxicity of cyclo (D)-Pro-(D)-Phe was determined using 24-well polystyrene plates. Pure compound was dissolved in DMSO and added to autoclaved FSW to form different concentrations. Competent Balanus amphitrites larvae (10±2 individuals) were added to each well with 1 ml testing solution in 5 replicates. The wells containing FSW served as the control. The 24-well plates were incubated at 30° C. for 24 h. The percent mortality was determined by counting the number of dead larvae under a dissecting microscope.
as §2

The test system of another data set is Micrococcus luteus. Put plainly: agar disc diffusion assay, inhibition zone. Type of data set: cell-based. The following applies: 30° C., 24 h, read-out: Inhibition Zone Width. Here is the method: (§3) Antibacterial activity was tested against bacteria using an agar disc diffusion assay method. Sterile paper discs (6 mm i.d.) impregnated with the substance under test at a concentration of 50 μg disc^−1 were applied onto the surface of an agar plate (plastic Petri dish) inoculated with one strain with sterile forceps and gently pressed down to ensure good contact with the surface. Blank discs treated with the same volume of DMSO were added. A control disc, containing streptomycin was used. After the application of discs, the plates were incubated at 30° C. for 24 h, and then the size of the inhibition zone was measured.
as §3, with “using” for “using an”, “assay.” for “assay method.”, “disc” for “disc,”, “h. The” for “h, and then the”, “measured. The results are presented in Table 8 and Table 9 for Cyclo (D)-Pro-(D)-Phe and b3-methyl-N-(2-phenylethyl)butanamide, respectively.” for “measured.”
(In agar diffusion tests the substance spreads into inoculated agar from a disc or well.)

The test system of a further data set is Moraxella phenylpyruvica. Put plainly: agar disc diffusion assay, inhibition zone. In kind it is cell-based. Particulars: Psychrobacter phenylpyruvicus, 30° C., 24 h, read-out: Inhibition Zone Width. Here is the method:
as §3
as §3, with “using” for “using an”, “assay.” for “assay method.”, “disc” for “disc,”, “h. The” for “h, and then the”, “measured. The results are presented in Table 8 and Table 9 for Cyclo (D)-Pro-(D)-Phe and b3-methyl-N-(2-phenylethyl)butanamide, respectively.” for “measured.”

The subject of data set [3] is Pseudoalteromonas piscida. Put plainly: agar disc diffusion assay, inhibition zone. The following applies: 30° C., 24 h, read-out: Inhibition Zone Width. In kind it is cell-based. Here is the method: as §3
as §3, with “using” for “using an”, “assay.” for “assay method.”, “disc” for “disc,”, “h. The” for “h, and then the”, “measured. The results are presented in Table 8 and Table 9 for Cyclo (D)-Pro-(D)-Phe and b3-methyl-N-(2-phenylethyl)butanamide, respectively.” for “measured.”

Another data set has as its system Pseudoalteromonas sp. Put plainly: agar disc diffusion assay, inhibition zone. Type of data set: cell-based. Particulars: 30° C., 24 h, read-out: Inhibition Zone Width. Here is the method:
as §3
as §3, with “using” for “using an”, “assay.” for “assay method.”, “disc” for “disc,”, “h. The” for “h, and then the”, “measured. The results are presented in Table 8 and Table 9 for Cyclo (D)-Pro-(D)-Phe and b3-methyl-N-(2-phenylethyl)butanamide, respectively.” for “measured.”

For another data set, the system named is Shewanella algae. Nature of the data set: agar disc diffusion assay, inhibition zone. In kind it is cell-based. The following applies: 30° C., 24 h, read-out: Inhibition Zone Width. Here is the method: as §3
as §3, with “using” for “using an”, “assay.” for “assay method.”, “disc” for “disc,”, “h. The” for “h, and then the”, “measured. The results are presented in Table 8 and Table 9 for Cyclo (D)-Pro-(D)-Phe and b3-methyl-N-(2-phenylethyl)butanamide, respectively.” for “measured.”

Data set [4] relates to Staphylococcus haemolyticus. Put plainly: agar disc diffusion assay, inhibition zone. Type of data set: cell-based. Particulars: 30° C., 24 h, read-out: Inhibition Zone Width. Here is the method: as §3
as §3, with “using” for “using an”, “assay.” for “assay method.”, “disc” for “disc,”, “h. The” for “h, and then the”, “measured. The results are presented in Table 8 and Table 9 for Cyclo (D)-Pro-(D)-Phe and b3-methyl-N-(2-phenylethyl)butanamide, respectively.” for “measured.”

The test system of the next data set is Vibrio fluvialis. Put plainly: agar disc diffusion assay, inhibition zone. Type of data set: cell-based. The following applies: 30° C., 24 h, read-out: Inhibition Zone Width. Here is the method: as §3
as §3, with “using” for “using an”, “assay.” for “assay method.”, “disc” for “disc,”, “h. The” for “h, and then the”, “measured. The results are presented in Table 8 and Table 9 for Cyclo (D)-Pro-(D)-Phe and b3-methyl-N-(2-phenylethyl)butanamide, respectively.” for “measured.”

Another data set concerns Vibrio harveyi. Put plainly: agar disc diffusion assay, inhibition zone. Type of data set: cell-based. Particulars: 30° C., 24 h, read-out: Inhibition Zone Width. Here is the method:
as §3
as §3, with “using” for “using an”, “assay.” for “assay method.”, “disc” for “disc,”, “h. The” for “h, and then the”, “measured. The results are presented in Table 8 and Table 9 for Cyclo (D)-Pro-(D)-Phe and b3-methyl-N-(2-phenylethyl)butanamide, respectively.” for “measured.”

Another data set deals with Vibrio sp. (NAP-4). Put plainly: agar disc diffusion assay, inhibition zone. In kind it is cell-based. Particulars: 30° C., 24 h, read-out: Inhibition Zone Width. Here is the method:
as §3
as §3, with “using” for “using an”, “assay.” for “assay method.”, “disc” for “disc,”, “h. The” for “h, and then the”, “measured. The results are presented in Table 8 and Table 9 for Cyclo (D)-Pro-(D)-Phe and b3-methyl-N-(2-phenylethyl)butanamide, respectively.” for “measured.”

For a further data set, the system named is Ruegeria sp. Put plainly: agar disc diffusion assay, inhibition zone. Type of data set: cell-based. Particulars: 50 μg/disc, 30° C., 24 h; read-out: Inhibition Zone Width. Here is the method: as §3
The test system of the next data set is Staphylococcus aureus. Put plainly: agar disc diffusion assay, inhibition zone. Type of data set: cell-based. The following applies: 50 μg/disc, 30° C., 24 h, read-out: Inhibition Zone Width. Here is the method:
as §3

A further data set has as its system Loktanella hongkongensis. Nature of the data set: agar disc diffusion assay, inhibition zone. Type of data set: cell-based. The following applies: Limimaricola hongkongensis; 100 μg (streptomycin control), 30° C., 24 h; read-out: Inhibition Zone Width. Here is the method: as §3, with “using” for “using an”, “assay.” for “assay method.”, “disc” for “disc,”, “h. The” for “h, and then the”, “measured. The results are presented in Table 8 and Table 9 for Cyclo (D)-Pro-(D)-Phe and b3-methyl-N-(2-phenylethyl)butanamide, respectively.” for “measured.”

The next data set relates to Rhodovulum sp. Nature of the data set: agar disc diffusion assay, inhibition zone. In kind it is cell-based. Particulars: 100 μg (streptomycin control), 30° C., 24 h; read-out: Inhibition Zone Width. Here is the method:
as §3, with “using” for “using an”, “assay.” for “assay method.”, “disc” for “disc,”, “h. The” for “h, and then the”, “measured. The results are presented in Table 8 and Table 9 for Cyclo (D)-Pro-(D)-Phe and b3-methyl-N-(2-phenylethyl)butanamide, respectively.” for “measured.”

The next data set has as its system Vibrio alginolyticus. Nature of the data set: agar disc diffusion assay, inhibition zone. Type of data set: cell-based. Particulars: 100 μg (streptomycin control), 30° C., 24 h, read-out: Inhibition Zone Width. Here is the method:
as §3, with “using” for “using an”, “assay.” for “assay method.”, “disc” for “disc,”, “h. The” for “h, and then the”, “measured. The results are presented in Table 8 and Table 9 for Cyclo (D)-Pro-(D)-Phe and b3-methyl-N-(2-phenylethyl)butanamide, respectively.” for “measured.”

The next data set has as its system Vibrio furnissii. Nature of the data set: agar disc diffusion assay, inhibition zone. In kind it is cell-based. Particulars: 100 μg (streptomycin control), 30° C., 24 h, read-out: Inhibition Zone Width. Here is the method:
as §3, with “using” for “using an”, “assay.” for “assay method.”, “disc” for “disc,”, “h. The” for “h, and then the”, “measured. The results are presented in Table 8 and Table 9 for Cyclo (D)-Pro-(D)-Phe and b3-methyl-N-(2-phenylethyl)butanamide, respectively.” for “measured.”

For another data set, the system named is Vibrio halioticoli. Nature of the data set: agar disc diffusion assay, inhibition zone. Type of data set: cell-based. The following applies: 100 μg (streptomycin control), 30° C., 24 h, read-out: Inhibition Zone Width. Here is the method:
as §3, with “using” for “using an”, “assay.” for “assay method.”, “disc” for “disc,”, “h. The” for “h, and then the”, “measured. The results are presented in Table 8 and Table 9 for Cyclo (D)-Pro-(D)-Phe and b3-methyl-N-(2-phenylethyl)butanamide, respectively.” for “measured.”

A further data set has as its system Vibrio vulnificus. Put plainly: agar disc diffusion assay, inhibition zone. The following applies: 100 μg (streptomycin control), 30° C., 24 h, read-out: Inhibition Zone Width. In kind it is cell-based. Here is the method: as §3, with “using” for “using an”, “assay.” for “assay method.”, “disc” for “disc,”, “h. The” for “h, and then the”, “measured. The results are presented in Table 8 and Table 9 for Cyclo (D)-Pro-(D)-Phe and b3-methyl-N-(2-phenylethyl)butanamide, respectively.” for “measured.”

For the molecule `O=C(O)CCC(=O)O` [Compound 4, succinic acid], the “concentration showing anti-larval settlement effects” value in data set [1] stood at 110 µg/mL. Moreover, the “therapeutic ratio LC50/EC50” value in data set [2] came out at 94.1.

For `[H]/N=C(/N)N[C@H]1[C@H](O)[C@@H](O)[C@H](O[C@@H]2O[C@@H](C)[C@](O)(C=O)[C@H]2O[C@@H]2O[C@@H](CO)[C@H](O)[C@@H](O)[C@@H]2NC)[C@@H](N/C(N)=N\[H])[C@@H]1O` [Streptomycin, reference compound], the zone of inhibition at 50 µg/disc worked out at 6.5 mm in the data set on Micrococcus luteus (50 μg/disc); 0 mm in the data set on Moraxella phenylpyruvica (50 μg/disc); 5 mm in data set [3] (50 μg/disc); 6 mm in the data set on Pseudoalteromonas sp. (50 μg/disc); 7 mm with Shewanella algae (50 μg/disc); 6 mm in data set [4] (50 μg/disc). Further, the zone of inhibition at 50 µg/disc in the data set with Vibrio fluvialis (50 μg/disc) is 4 mm; in the data set with Vibrio harveyi (50 μg/disc), 3 mm; in the data set with Vibrio sp. (NAP-4) (50 μg/disc), 4 mm; in the data set on Ruegeria sp., 4.5 mm; in the data set on Staphylococcus aureus, 3.5 mm. Further, the zone of inhibition at 100 µg/disc came to 6.7 ± 0.6 mm with Micrococcus luteus (100 μg (streptomycin control)); 9 mm with Moraxella phenylpyruvica (100 μg (streptomycin control)); 3 ± 1 mm in data set [3] (100 μg (streptomycin control)); 4 ± 1 mm in the data set with Pseudoalteromonas sp. (100 μg (streptomycin control)); 6.3 ± 1.2 mm with Shewanella algae (100 μg (streptomycin control)); 3 mm in data set [4] (100 μg (streptomycin control)). In addition, the zone of inhibition at 100 µg/disc was 3 mm with Vibrio fluvialis (100 μg (streptomycin control)); 6 mm with Vibrio harveyi (100 μg (streptomycin control)); 5.7 ± 0.6 mm in the data set on Vibrio sp. (NAP-4) (100 μg (streptomycin control)); 4 mm in the data set on Loktanella hongkongensis; 5.3 ± 1.2 mm in the data set on Rhodovulum sp.; 6.7 ± 2.3 mm with Vibrio alginolyticus. Besides, the zone of inhibition at 100 µg/disc in the data set on Vibrio furnissii stood at 2.3 ± 0.6 mm; with Vibrio halioticoli, 4.3 ± 0.6 mm; in the data set on Vibrio vulnificus it was 3.3 ± 0.8 mm.

Source of the values: patent US8257478B2, “Use of marine fungus originated compounds as antifouling agents” (The Hong Kong University of Science and Technology, priority 2004, dated 2012).
